Reference: patent US9963462B2 (priority 2015, dated 2018)
pIC50: −log10 of the molar value.

Legend:
[1] = system: BH4 production in human peripheral blood mononuclear cells (PBMCs); assay: hPBMC assay, inhibition of BH4 production by LC-MS (anti-CD3/anti-CD28 stimulated); type: cell-based; details: PBMC, read-out: hPBMC IC50
Experimental: hPBMC Assay: PBMCs were either purchased or isolated from fresh human blood and used either as a fresh preparation or frozen for later use. The assay system was prepared by pre-treating the assay plates overnight with a solution containing anti-human CD3 antibody. Human PBMCs were suspended in assay medium and plated into the assay plates at a density of 1-4×10^5 cells per well. The desired concentration of the test compound was added to each well. A solution of human anti-CD28 antibody was also added to each well. Plates were incubated for 12-48 hours at 37° C. and 5% CO2. Assay plates were centrifuged for 5-15 minutes at 1-3000 RMP and supernatants were removed. The cells were lysed, sealed and used directly or frozen at −80° C. LC-MS was used to quantify the amount of inhibition of BH4 production.
PBMCs were either purchased or isolated from fresh human blood and used either as a fresh preparation or frozen for later use. The assay system was prepared by pre-treating the assay plates overnight with a solution containing anti-human CD3 antibody. Human PBMCs were suspended in assay medium and plated into the assay plates at a density of 1-4×10^5 cells per well. The desired concentration of the test compound was added to each well. A solution of human anti-CD28 antibody was also added to each well. Plates are incubated for 12-48 hours at 37° C. and 5% CO2. Assay plates were centrifuged for 5-15 minutes at 1-3000 RMP and supernatants were removed. The cells were lysed, sealed and used directly or frozen at −80° C.

[2] = target: SNAP-hSPR (sepiapterin reductase, SPR) (Homo sapiens, UniProt P35270); assay: biochemical; type: binding; details: terbium labelled SNAP-hSPR / SSZ labelled SNAP-EGFP; read-out: hTR-FRET IC50
Chain of SNAP-hSPR (sepiapterin reductase, SPR) (P35270 whole entry): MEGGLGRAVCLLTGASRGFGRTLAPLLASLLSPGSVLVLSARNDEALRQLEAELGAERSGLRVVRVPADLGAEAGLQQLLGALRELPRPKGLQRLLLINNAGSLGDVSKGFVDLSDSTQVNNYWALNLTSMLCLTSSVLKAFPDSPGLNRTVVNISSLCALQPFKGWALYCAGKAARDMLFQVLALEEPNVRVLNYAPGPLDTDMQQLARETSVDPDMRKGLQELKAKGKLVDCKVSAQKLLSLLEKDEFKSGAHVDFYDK

## Cc1c(C(=O)N2CCN(S(=O)(=O)c3ccc(F)cc3)CC2)cnn1-c1nn2cccc2c(=O)[nH]1 [Q-1807]
[1]
  pIC50: 6.96
[2]
  pIC50: 9.00

## Cc1c(C(=O)N2CCN(S(=O)(=O)c3ccc(F)cc3F)CC2)cnn1-c1nn2cccc2c(=O)[nH]1 [Q-1866]
[1]
  pIC50: 7.10
[2]
  pIC50: 8.70

## O=C(c1cn(-c2nn3cccc3c(=O)[nH]2)nn1)N1CCC(C2CC2)CC1 [Q-1222]
[1]
  pIC50: 7.60
[2]
  pIC50: 9.00

## CCC(C#N)C1(F)CCN(C(=O)c2cnn(-c3nc4c(c(=O)[nH]3)CCC4)c2C)CC1 (stereo not drawn) [Q-1102]
[1]
  pIC50: 7.24
[2]
  pIC50: 9.00

## Cc1c(C(=O)N2CC3CCCC(C2)C3C(F)(F)F)cnn1-c1nn2cccc2c(=O)[nH]1 (stereo not drawn) [Q-1123]
[1]
  pIC50: 7.24
[2]
  pIC50: 9.00

## Cc1c(C(=O)N2CCC(c3cccnc3Cl)CC2)cnn1-c1nn2cccc2c(=O)[nH]1 [Q-1111]
[1]
  pIC50: 7.82
[2]
  pIC50: 9.00

## Cc1c(C(=O)N2CCC2c2cncc(F)c2)cnn1-c1nn2cccc2c(=O)[nH]1 (stereo not drawn) [Q-1269]
[1]
  pIC50: 7.28
[2]
  pIC50: 8.30

## Cc1c(C(=O)N2CCc3nc(-c4ccc(C(F)(F)F)cc4)sc3C2)cnn1-c1nn2cccc2c(=O)[nH]1 [Q-1148]
[1]
  pIC50: 6.27
[2]
  pIC50: 8.00

## Cc1c(C(=O)N2CCC3(CC2)CC3C(=O)N2CCOCC2)cnn1-c1nc2c(c(=O)[nH]1)CCC2 (stereo not drawn) [Q-1077]
[1]
  pIC50: 6.80
[2]
  pIC50: 8.30

## Cc1c(C(=O)NC2CC(F)(F)C2)cnn1-c1nn2cccc2c(=O)[nH]1 [Q-1177]
[1]
  pIC50: 5.89
[2]
  pIC50: 8.05

## Cc1nn(-c2nn3cccc3c(=O)[nH]2)cc1C(=O)N1CC2(C1)CC(F)(F)C2 [Q-1239]
[1]
  pIC50: 7.57
[2]
  pIC50: 8.70

## Cc1c(C(=O)N2CCN(c3nc(-c4ccccc4C(F)(F)F)cs3)CC2)cnn1-c1nn2cccc2c(=O)[nH]1 [Q-1153]
[1]
  pIC50: 6.20
[2]
  pIC50: 8.10

## Cc1c(C(=O)N2CCC(C(F)(F)F)CC2)c(C(N)=O)nn1-c1nc2c(c(=O)[nH]1)CCC2 [Q-1884, 5-methyl-1-(4-oxo-4,5,6,7-tetrahydro-3H-cyclopenta[d]pyrimidin-2-yl)-4-(4-(trifluoromethyl)piperidine-1-carbonyl)-1H-pyrazole-3-carboxamide]
[1]
  pIC50: 7.08
[2]
  pIC50: 9.00

## Cc1c(C(=O)N2CCC(n3cccc3S(=O)(=O)C(F)(F)F)CC2)cnn1-c1nn2cccc2c(=O)[nH]1 [Q-1288]
[1]
  pIC50: 6.22
[2]
  pIC50: 8.10

## C=C(c1cnn(C(C)C)c1NC(=O)c1cnn(-c2nn3cccc3c(=O)[nH]2)c1C)C(F)(F)F [Q-1143]
[1]
  pIC50: 6.51
[2]
  pIC50: 8.52

## Cc1c(C(=O)N2CCC(c3nc(C(F)(F)F)cs3)CC2)cnn1-c1nn2cccc2c(=O)[nH]1 [Q-1108]
[1]
  pIC50: 7.30
[2]
  pIC50: 9.00

## Cc1c(C(=O)N2CCN(c3ncc(-c4ccc(Cl)nc4)o3)CC2)nnn1-c1nn2cccc2c(=O)[nH]1 [Q-1190]
[1]
  pIC50: 7.23
[2]
  pIC50: 8.00

## Cc1c(C(=O)N2CCN(C(C)C(F)(F)F)CC2)nnn1-c1nn2cccc2c(=O)[nH]1 (stereo not drawn) [Q-1889]
[1]
  pIC50: 7.44
[2]
  pIC50: 9.00

## Cc1c(C(=O)N2CCN(c3nc(-c4ccc(C(F)(F)F)cc4)cs3)CC2)cnn1-c1nn2cccc2c(=O)[nH]1 [Q-1139]
[1]
  pIC50: 6.38
[2]
  pIC50: 7.70

## Cc1c(C(=O)N2CCN(c3ncc(-c4cccc(F)c4)o3)CC2)cnn1-c1nn2cccc2c(=O)[nH]1 [Q-1157]
[1]
  pIC50: 6.31
[2]
  pIC50: 8.40

## Cc1c(C(=O)N2CCN(S(=O)(=O)c3ccccc3F)CC2)cnn1-c1nn2cccc2c(=O)[nH]1 [Q-1799]
[1]
  pIC50: 7.00
[2]
  pIC50: 9.00

## O=C(c1cn(-c2nn3cccc3c(=O)[nH]2)nn1)N1CCN(C2CC2)CC1 [Q-1221]
[1]
  pIC50: 7.43
[2]
  pIC50: 9.00

## Cc1c(C(=O)N2CCN(c3ncc(-c4ccccc4F)s3)CC2)cnn1-c1nn2cccc2c(=O)[nH]1 [Q-1230]
[1]
  pIC50: 6.74
[2]
  pIC50: 8.00

## Cc1c(C(=O)N2CCN(c3ncc(-c4ccc(C#N)cc4)s3)CC2)cnn1-c1nn2cccc2c(=O)[nH]1 [Q-1211]
[1]
  pIC50: 6.80
[2]
  pIC50: 8.00

## CC(=O)C1(c2ccccc2)CCN(C(=O)c2cnn(-c3nn4cccc4c(=O)[nH]3)c2C)CC1 [Q-1215]
[1]
  pIC50: 7.77
[2]
  pIC50: 9.00

## Cc1c(C(=O)N2CCN(C3CC3C(F)(F)F)CC2)cnn1-c1nn2cccc2c(=O)[nH]1 (stereo not drawn) [Q-1240]
[1]
  pIC50: 7.46
[2]
  pIC50: 9.00

## CCS(=O)(=O)N1CCN(C(=O)c2cnn(-c3nn4cccc4c(=O)[nH]3)c2C)CC1 [Q-1581]
[1]
  pIC50: 6.77
[2]
  pIC50: 8.40

## Cc1c(C(=O)N2CC(c3cncc(F)c3)C2)cnn1-c1nn2cccc2c(=O)[nH]1 [Q-1129]
[1]
  pIC50: 7.30
[2]
  pIC50: 8.70

## Cc1c(C(=O)N2CCN(c3nc(-c4ccncc4)cs3)CC2)cnn1-c1nn2cccc2c(=O)[nH]1 [Q-1182]
[1]
  pIC50: 7.32
[2]
  pIC50: 9.00

## Cc1c(C(=O)N2CCN(c3nc(-c4ccc(C#N)cc4)cs3)CC2)cnn1-c1nn2cccc2c(=O)[nH]1 [Q-1210]
[1]
  pIC50: 7.08
[2]
  pIC50: 8.70

## Cc1c(C(=O)N2CCN(S(=O)(=O)c3cccs3)CC2)cnn1-c1nn2cccc2c(=O)[nH]1 [Q-1821]
[1]
  pIC50: 6.89
[2]
  pIC50: 9.00

## Cc1c(C(=O)N2CCC(c3noc(C(F)(F)F)n3)CC2)cnn1-c1nc2c(c(=O)[nH]1)CCC2 [Q-1075]
[1]
  pIC50: 7.77
[2]
  pIC50: 8.70

## COCC(C1CCN(C(=O)c2cnn(-c3nn4cccc4c(=O)[nH]3)c2C)CC1)C(F)(F)F (stereo not drawn) [Q-1198]
[1]
  pIC50: 7.77
[2]
  pIC50: 9.00

## Cc1c(C(=O)N2CCCC(C(F)(F)F)CC2)cnn1-c1nn2cccc2c(=O)[nH]1 (stereo not drawn) [Q-1124]
[1]
  pIC50: 7.46
[2]
  pIC50: 9.00

## Cc1c(C(=O)N2CCN(c3nc(-c4ccc(Cl)cc4)cs3)CC2)cnn1-c1nn2cccc2c(=O)[nH]1 [Q-1138]
[1]
  pIC50: 6.44
[2]
  pIC50: 7.70

## Cc1c(C(=O)N2CCN(S(=O)(=O)c3ccc(Cl)nc3)CC2)cnn1-c1nn2cccc2c(=O)[nH]1 [Q-1862]
[1]
  pIC50: 6.60
[2]
  pIC50: 8.70

## Cc1c(C(=O)N2CCC(n3cccc3Cl)CC2)cnn1-c1nn2cccc2c(=O)[nH]1 [Q-1233]
[1]
  pIC50: 7.64
[2]
  pIC50: 9.00

## Cc1c(C(=O)N2CCN(S(=O)(=O)c3ccccc3C(F)(F)F)CC2)cnn1-c1nn2cccc2c(=O)[nH]1 [Q-1796]
[1]
  pIC50: 6.59
[2]
  pIC50: 9.00

## Cc1c(C(=O)N2CC3CC(C2)N3CC(F)(F)F)nnn1-c1nn2cccc2c(=O)[nH]1 [Q-1225]
[1]
  pIC50: 7.54
[2]
  pIC50: 9.00

## Cc1c(C(=O)N2CCN(c3nc(-c4cccc(F)c4)cs3)CC2)cnn1-c1nn2cccc2c(=O)[nH]1 [Q-1156]
[1]
  pIC50: 6.96
[2]
  pIC50: 8.22

## Cc1c(C(=O)N2CCN(c3nc(-c4ccnc(Cl)c4)cs3)CC2)cnn1-c1nn2cccc2c(=O)[nH]1 [Q-1163]
[1]
  pIC50: 7.17
[2]
  pIC50: 8.70

## C=C1C2CCCC1CN(C(=O)c1cnn(-c3nn4cccc4c(=O)[nH]3)c1C)C2 [Q-1126]
[1]
  pIC50: 7.32
[2]
  pIC50: 9.00

## Cc1c(C(=O)N2CCN(C3CC3)CC2)nnn1-c1nn2cccc2c(=O)[nH]1 [Q-1201]
[1]
  pIC50: 7.16
[2]
  pIC50: 9.00

## Cc1c(C(=O)N2CCC2c2ccc(Cl)cc2)cnn1-c1nn2cccc2c(=O)[nH]1 (stereo not drawn) [Q-1071]
[1]
  pIC50: 7.49
[2]
  pIC50: 8.22

## Cc1c(C(=O)N2CCN(c3nc(C(F)(F)F)co3)CC2)cnn1-c1nn2cccc2c(=O)[nH]1 [Q-1137]
[1]
  pIC50: 6.80
[2]
  pIC50: 8.52

## Cc1c(C(=O)N2CCC(c3nc(C(N)=O)cs3)CC2)cnn1-c1nc2c(c(=O)[nH]1)CCC2 [Q-1091]
[1]
  pIC50: 6.89
[2]
  pIC50: 8.70

## O=C(c1cnn(-c2nn3cccc3c(=O)[nH]2)c1)N1CCN2CC(F)(F)C[C@H]2C1 [Q-1246]
[1]
  pIC50: 7.00
[2]
  pIC50: 8.40

## Cc1c(C(=O)N2CCC(C3CC3)CC2)nnn1-c1nn2cccc2c(=O)[nH]1 [Q-1184]
[1]
  pIC50: 7.43
[2]
  pIC50: 8.70

## Cc1c(C(=O)N2CCC(n3ccnc3C(F)(F)F)CC2)cnn1-c1nn2cccc2c(=O)[nH]1 [Q-1229]
[1]
  pIC50: 7.00
[2]
  pIC50: 8.70

## Cc1c(C(=O)N2CCN(c3nc(C(F)(F)F)cs3)CC2)cnn1-c1nn2cccc2c(=O)[nH]1 [Q-1134]
[1]
  pIC50: 7.60
[2]
  pIC50: 8.52

## Cc1c(C(=O)N2C[C@H]3CCC[C@@H](C2)[C@H]3CC(F)(F)F)cnn1-c1nn2cccc2c(=O)[nH]1 [Q-1186]
[1]
  pIC50: 7.44
[2]
  pIC50: 9.00

## Cc1c(C(=O)N2CCC(n3ccnc3Cl)CC2)cnn1-c1nn2cccc2c(=O)[nH]1 [Q-1232]
[1]
  pIC50: 7.25
[2]
  pIC50: 9.00

## Cc1c(C(=O)N2C3CCC2CN(c2nccs2)C3)cnn1-c1nn2cccc2c(=O)[nH]1 [Q-1107]
[1]
  pIC50: 7.24
[2]
  pIC50: 9.00

## Cc1c(C(=O)N2CCN(S(=O)(=O)c3ccccc3Cl)CC2)cnn1-c1nn2cccc2c(=O)[nH]1 [Q-1819]
[1]
  pIC50: 7.04
[2]
  pIC50: 9.00

## Cc1c(C(=O)N2CC3CC(C2)N3CC(F)(F)F)cnn1-c1nn2cccc2c(=O)[nH]1 [Q-1106]
[1]
  pIC50: 7.03
[2]
  pIC50: 9.00

## Cc1c(C(=O)N2CC(N3CCC(F)(F)C3)C2)cnn1-c1nc2cc[nH]c2c(=O)[nH]1 [Q-1255]
[1]
  pIC50: 6.24
[2]
  pIC50: 7.00

## C=CCC(C#N)(CC=C)C1CCN(C(=O)c2cnn(-c3nn4cccc4c(=O)[nH]3)c2C)CC1 [Q-1110]
[1]
  pIC50: 7.37
[2]
  pIC50: 8.70

## Cc1c(C(=O)N2CCN(S(=O)(=O)c3cc(Cl)sc3Cl)CC2)cnn1-c1nn2cccc2c(=O)[nH]1 [Q-1858]
[1]
  pIC50: 6.59
[2]
  pIC50: 9.00

## Cc1c(C(=O)N2CCCC(F)(F)CC2)cnn1-c1nn2cccc2c(=O)[nH]1 [Q-1119]
[1]
  pIC50: 6.43
[2]
  pIC50: 8.70

## Cc1c(C(=O)N2CC(S(=O)(=O)c3ccccc3)C2)cnn1-c1nn2cccc2c(=O)[nH]1 [Q-2017]
[1]
  pIC50: 6.77
[2]
  pIC50: 8.70

## Cc1c(C(=O)N2CCN(C3CCC3(F)F)CC2)cnn1-c1nn2cccc2c(=O)[nH]1 (stereo not drawn) [Q-1120]
[1]
  pIC50: 7.01
[2]
  pIC50: 9.00

## Cc1c(C(=O)N2CCN(S(=O)(=O)c3ccc(F)cc3Cl)CC2)cnn1-c1nn2cccc2c(=O)[nH]1 [Q-1876]
[1]
  pIC50: 6.96
[2]
  pIC50: 9.00

## Cc1nc(C)c(S(=O)(=O)N2CCN(C(=O)c3cnn(-c4nn5cccc5c(=O)[nH]4)c3C)CC2)s1 [Q-1805]
[1]
  pIC50: 6.89
[2]
  pIC50: 9.00
